Test results: the CheMixHub viscosity set

Experiment: xn = mol fraction of the nth substance listed

Cc1ccccc1C + CC(C)CO
308.15 K, 101 kPa
Details | viscosity [mPa·s]
x2 = 0.0649 | 0.669
x2 = 0.1278 | 0.681
x2 = 0.2187 | 0.684
x2 = 0.3335 | 0.77
x2 = 0.4418 | 0.851
x2 = 0.5688 | 0.986
x2 = 0.6291 | 1.064
x2 = 0.7214 | 1.215
x2 = 0.8196 | 1.486
x2 = 0.9023 | 1.835
x2 = 0.9616 | 2.245

CCCCCCCCCCO + Cc1ccccc1
viscosity [mPa·s], 101 kPa
Details | 298.15 K | 308.15 K
x2 = 0.0507 | 10.3 | 7.108
x2 = 0.1015 | 9.101 | 6.203
x2 = 0.1473 | 8.207 | 5.499
x2 = 0.2091 | 7.146 | 4.673
x2 = 0.2577 | 6.303 | 4.079
x2 = 0.3006 | 5.584 | 3.647
x2 = 0.3496 | 4.913 | 3.173
x2 = 0.4028 | 4.195 | 2.786
x2 = 0.4516 | 3.678 | 2.398
x2 = 0.4989 | 3.222 | 2.122
x2 = 0.5497 | 2.797 | 1.832
x2 = 0.6009 | 2.439 | 1.569
x2 = 0.6498 | 2.13 | 1.393
x2 = 0.7065 | 1.819 | 1.159
x2 = 0.7524 | 1.537 | 1.047
x2 = 0.8069 | 1.308 | 0.858
x2 = 0.8472 | 1.071 | 0.798
x2 = 0.9063 | 0.807 | 0.687
x2 = 0.953 | 0.608 | 0.585

CC(C)[C@@H]1CC[C@@H](C)C[C@H]1O + CCCCCCCCO
Details | viscosity [mPa·s]
298.15 K, 101.33 kPa, x1 = 0.5 | 13.1

CCC#N + CC#N
298 K, 101.33 kPa
Details | viscosity [mPa·s]
x1 = 0.1298 | 0.35
x1 = 0.2716 | 0.36
x1 = 0.4271 | 0.374
x1 = 0.5986 | 0.384
x1 = 0.7885 | 0.402
